Series [1] in a line: Liver microsomes stability, human. Format: in vitro ADME. The protocol: (§1) A 100 μM test compound solution and PC solution (verapamil) was prepared by adding 2 μL of 10 mM stock solution in DMSO to 198 μL of 50% acetonitrile/50% water.
(§2) Two separate experiments were performed as follows:
(§3) a) With Cofactors (NADPH): 25 μL of 10 mM NADPH was added to the incubations. The final concentrations of microsomes and NADPH were 0.5 mg/mL and 1 mM, respectively.
(§4) b) Without Cofactors (NADPH): 25 μL of 100 mM Phosphate buffer was added to the incubations. The final concentration of microsomes was 0.5 mg/mL. The mixture was pre-warmed at 37° C. for 10 minutes.
(§5) The reaction was started with the addition of 2.5 μL of 100 µM control compound or test compound solutions. Verapamil was used as positive control in this study. The final concentration of test compound or control compound was 1 μM. The incubation solution was incubated in a water bath at 37° C.
(§6) Aliquots of 30 μL were taken from the reaction solution at 0.5, 15, 30, 45 and 60 minutes. The reaction was stopped by the addition of 5 volumes of cold acetonitrile with IS (100 nM alprazolam, 200 nM caffeine and 100 nM tolbutamide).
(§7) Samples were then centrifuged at 3,220 g for 40 minutes. An aliquot of 100 μL of the supernatant was mixed with 100 μL of ultra-pure H2O and then used for LC-MS/MS analysis.
(§8) Single dose PK parameters were also determined for Compound 143, a deuterated derivative of Compound 1, according to the methods described herein. […] Metabolic stability was assessed by measuring the half-life of the test compounds in human and mouse liver microsomes.

The target in a further series is T1, MDR1 (Homo sapiens, UniProt P08183).
T1 construct: expressed in transfected cells; host or cells: MDCK-MDR1 cells (MDCK host)
The series can be described thus: MDCK-MDR1 permeability / efflux assay. Format: in vitro ADME, canine. Particulars: dog; for Papp A→B at 2 h, 1 µM: MDCK-MDR1, pH 7.4, MDCK cells, apical to basolateral. The protocol: To prepare transport buffer (HBSS with 10 mM HEPES, pH 7.4), 2.383 g of HEPES and 0.35 g sodium hydrogen carbonate was accurately weighed and added into 900 mL of pure water, then sonicated to dissolve the content. Into the solution was transferred 100 mL of 10×HBSS, and the solution was placed on a stirrer. The pH of the solution was slowly adjusted with sodium hydroxide to 7.4, followed with filtering.
MDCK-MDR1 plate(s) were removed from the incubator. The monolayer was washed the monolayer twice with pre-warmed HBSS (10 mM HEPES, pH 7.4). Then the plate(s) were incubated at 37° C. for 30 minutes.
Propranolol was used as the high permeability marker. Digoxin was used as the substrate of […] (MDR1). Stock solutions of test compound(s) and digoxin in DMSO at 0.2 mM were prepared and diluted with HBSS (10 mM HEPES, pH 7.4) to get 1 μM working solutions. Stock solutions of propranolol in DMSO at 1 mM was prepared and diluted with HBSS (10 mM HEPES, pH 7.4) to get 5 μM working solutions.
To determine the rate of drug transport in the apical to basolateral direction, 125 μL of the working solution was added to the Transwell insert (apical compartment), and a 50 μL sample was immediately transferred from the apical compartment to 200 μL quenching solvents (acetonitrile with 100 nM alprazolam, 200 nM caffeine, 200 nM labetalol and 100 nM tolbutamide) in a new 96-well plate as the initial donor sample (A-B). The plate was shaken at 1000 rpm for 10 minutes. The wells in the receiver plate (basolateral compartment) were filled with 235 μL of transport buffer. All incubations were performed in duplicate.
To determine the rate of drug transport in the basolateral to apical direction, 285 μL of the 1 μM working solution was added to the receiver plate wells (basolateral compartment), and a 50 μL sample was immediately transferred from the basolateral compartment to 200 μL quenching solvents (acetonitrile with 100 nM alprazolam, 200 nM caffeine, 200 nM labetalol and 100 nM tolbutamide) in a new 96-well plate as the initial donor sample (B-A). Shake the plate at 1000 rpm 10 minutes. The Transwell insert (apical compartment) was filled with 75 μL of transport buffer. The apical to basolateral direction and the basolateral to apical direction were done at the same time.
The Transwell insert plate was inserted into the basolateral plate, transferred into the incubator and incubated at 37° C. for 2 hours.
At the end of the incubation, 50 μL samples from donor sides (apical compartment for Ap→Bl flux, and basolateral compartment for Bl→Ap flux) and receiver sides (basolateral compartment for Ap→Bl flux, and apical compartment for Bl→Ap flux) were transferred to wells of a new 96-well plate, followed by the addition of 4 volume of quenching solvents (acetonitrile with 100 nM alprazolam, 200 nM caffeine, 200 nM labetalol and 100 nM tolbutamide). Samples were Vortexed for 10 minutes and then centrifuged at 3,220 g for 40 minutes. An aliquot of 100 μL of the supernatant was mixed with an appropriate volume of ultra-pure water before LC-MS/MS analysis.
To determine the Lucifer yellow leakage after 2-hour transport period, Lucifer yellow working solutions were prepared by diluting the stock solution with HBSS (10 mM HEPES, pH 7.4) to reach the final concentration of 100 μM. To the apical compartment, 100 μL of the Lucifer yellow solution were added. The plate(s) were incubated at 37° C. for 30 minutes and 80 μL was directly removed from the apical and basolateral wells and transferred to new 96 wells plates. Lucifer yellow fluorescence (to monitor monolayer integrity) was measured in a fluorescence plate reader at 485 nm excitation and 530 nm emission.

Series [2] is described as follows: Single dose plasma pharmacokinetics after IV and PO administration. Format: in vivo, female BALB/c mice. Particulars: for AUC(0-t) / Cmax: female, BALB/c; for AUC(0-t) / Cmax / AUC(0-inf) / C0 / clearance / half-life / Vd / Tmax: mouse, plasma; for AUC(0-t) / Cmax / F / AUC(0-inf) / C0 / clearance / half-life / Vd / Tmax: female BALB/c mice; for F: PO 20 mg/kg vs IV 1 mg/kg; for Vd: read-out: Vss. The protocol:
Single dose PK parameters in plasma were determined following intravenous administration of compound 1 and comparative compound E7820 at 1 mg/kg by using the formulation of 10% DMSO/30% PEG400/60% Saline. The plasma samples were collected at the following time points: 0.083, 0.25, 0.5, 1, 2, 4, 8 and 24 hrs post-dose. The concentrations in plasma were determined.
Single dose PK parameters in plasma were determined following oral gavage of Compound 1 and comparative compound E7820 at 20 mg/kg by using the formulation of 0.5% MC (400 cps) and 0.1% Tween80 in water. The plasma samples were collected at the following time points: 0.25, 0.5, 1, 2, 4, 8 and 24 hrs post dose.
as §8

The nature of series [3]: Liver microsomes stability, mouse. Format: in vitro ADME. How it is done:
as §1, §2, §3, §4, §5, §6, §7, §8
A general note: Microsomes from liver hold many membrane-bound enzymes, among them those of drug oxidation.

The mark [4] stands for this setting: Table 6, read-out: Metabolic Stability Half-life, Human.
Setting [5] is: MDCK-MDR1, pH 7.4, MDCK cells, Table 6, read-out: MDCK Permeability Efflux Ratio.
[6] abbreviates: po, 20 mg/kg, AUC(0-8 hr), oral administration, Table 7.
Where [7] appears, read: po, 20 mg/kg, oral administration, Table 7.
The mark [8] stands for this setting: Table 6, read-out: Metabolic Stability Half-life, Mouse.
[9] abbreviates: 1 μM, Table 3, read-out: Metabolic Stability Half-life, human.
[10] abbreviates: MDCK-MDR1, pH 7.4, MDCK-MDR1, 1 μM, 2 hours, Table 3, read-out: MDCK-MDR1 Efflux ratio.
[11] abbreviates: iv, 1 mg/kg, IV 1 mg/kg, read-out: AUC(0-t).
Where [12] appears, read: po, 20 mg/kg, PO 20 mg/kg, read-out: AUC(0-t).
Setting [13] is: 1 μM, Table 3, read-out: Metabolic Stability Half-life, mouse.

As a reminder, the half-life is the time needed for the level to fall by half in the phase considered. By Papp A→B is commonly meant how fast a substance crosses the layer from the apical side. Higher therefore signals ready permeation. By AUC(0-t) is commonly meant the area under the concentration-time curve up to a stated or last time point. Broadly, the Cmax is the peak of the concentration-time curve. In general, AUC(0-inf) refers to the area under the concentration-time curve extrapolated to infinity. Read a low AUC(0-inf) as less exposure. Usually Tmax stands for the time at which the peak concentration occurs.

Like-named read-outs stand apart in the source and are kept apart here.

T1 sequence (P08183 whole entry): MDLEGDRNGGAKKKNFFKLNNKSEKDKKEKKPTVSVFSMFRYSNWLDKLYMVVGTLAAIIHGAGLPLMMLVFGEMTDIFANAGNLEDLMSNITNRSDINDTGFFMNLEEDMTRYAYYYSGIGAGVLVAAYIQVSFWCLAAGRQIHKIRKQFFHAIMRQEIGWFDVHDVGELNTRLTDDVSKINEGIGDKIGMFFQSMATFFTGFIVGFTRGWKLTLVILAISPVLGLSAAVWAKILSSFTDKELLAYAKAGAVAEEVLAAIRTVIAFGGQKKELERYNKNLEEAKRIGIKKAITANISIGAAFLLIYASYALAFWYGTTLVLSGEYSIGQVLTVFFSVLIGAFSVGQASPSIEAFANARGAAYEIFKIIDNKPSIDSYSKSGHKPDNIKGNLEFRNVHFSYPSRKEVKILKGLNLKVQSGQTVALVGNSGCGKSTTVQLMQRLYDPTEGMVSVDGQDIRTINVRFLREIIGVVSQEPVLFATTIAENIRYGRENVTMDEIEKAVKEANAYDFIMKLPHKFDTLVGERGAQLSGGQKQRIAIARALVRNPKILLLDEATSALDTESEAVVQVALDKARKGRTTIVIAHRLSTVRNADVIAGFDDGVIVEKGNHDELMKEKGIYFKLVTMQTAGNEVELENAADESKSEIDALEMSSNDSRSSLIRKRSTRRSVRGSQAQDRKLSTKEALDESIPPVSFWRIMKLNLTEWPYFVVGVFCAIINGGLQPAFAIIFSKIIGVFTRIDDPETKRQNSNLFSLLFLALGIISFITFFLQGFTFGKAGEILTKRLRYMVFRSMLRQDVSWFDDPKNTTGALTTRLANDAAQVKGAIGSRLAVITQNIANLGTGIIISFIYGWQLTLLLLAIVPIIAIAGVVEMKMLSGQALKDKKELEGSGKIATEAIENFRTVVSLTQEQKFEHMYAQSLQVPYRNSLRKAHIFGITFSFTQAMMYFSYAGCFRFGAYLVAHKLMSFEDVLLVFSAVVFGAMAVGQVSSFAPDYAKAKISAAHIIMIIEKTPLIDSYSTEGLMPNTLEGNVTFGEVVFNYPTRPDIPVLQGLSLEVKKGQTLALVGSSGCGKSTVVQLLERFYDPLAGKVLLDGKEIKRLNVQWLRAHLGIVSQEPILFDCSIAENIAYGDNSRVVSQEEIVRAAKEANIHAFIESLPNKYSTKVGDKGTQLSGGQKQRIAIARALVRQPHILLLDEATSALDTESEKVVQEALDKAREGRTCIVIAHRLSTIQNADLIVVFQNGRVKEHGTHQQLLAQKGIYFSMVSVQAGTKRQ

In the case of `[2H]C([2H])([2H])c1ncc(S(=O)(=O)Nc2ccc(C)c3c(C#N)c[nH]c23)s1` [Compound 143, N-(3-cyano-4-methyl-1H-indol-7-yl)-2-(methyl-d3)thiazole-5-sulfonamide], the half-life at 1 µM in series [1] (setting [4]) worked out at 93 min; in series [3] (setting [8]), 67 min. For the same compound, at MDR1 (setting [5]), the efflux ratio at 2 h, 1 µM was determined as 12. The Papp A→B at 2 h, 1 µM on MDR1 (Table 6) came to 2.9 ×10⁻⁶ cm/s. The compound further showed an AUC(0-t) in series [2] (setting [6]) of 107000 ng·h/mL. This compound also registered a Cmax in series [2] (setting [7]) of 19300 ng/mL. Besides, in series [2] (oral administration, compared to Compound 1, in words), the “plasma AUC compared to Compound 1” value is on record as “increase”.

In the case of `Cc1ncc(S(=O)(=O)Nc2ccc(C)c3c(C#N)c[nH]c23)s1` [Compound 1, N-(3-cyano-4-methyl-1H-indol-7-yl)-2-methyl-thiazole-5-sulfonamide], the half-life at 1 µM was 66.2 min in series [1] (setting [9]), 66 min in series [1] (setting [4]), 47.1 min in series [3] (setting [13]) and 47 min in series [3] (setting [8]). Also, the efflux ratio at 2 h, 1 µM amounted to 26 at MDR1 (setting [5]) and 25.5 at MDR1 (setting [10]). The compound also gave a Papp A→B at 2 h, 1 µM on MDR1 (Table 6) of 1.9 ×10⁻⁶ cm/s. Moreover, the F in series [2] amounted to 407%. The AUC(0-t) in series [2] (setting [11]) was 1860 ng·h/mL; in series [2] (setting [6]), 62300 ng·h/mL; in series [2] (setting [12]), 151000 ng·h/mL. Moreover, the Cmax in series [2] (po, 20 mg/kg, PO 20 mg/kg) was 25900 ng/mL; in series [2] (setting [7]) it was 9850 ng/mL. Besides, the AUC(0-inf) in series [2] (IV 1 mg/kg) worked out at 1860 ng·h/mL; in series [2] (PO 20 mg/kg), 190000 ng·h/mL. This compound came in with a C0 in series [2] (IV 1 mg/kg) of 6060 ng/mL. This compound also showed a clearance in series [2] (IV 1 mg/kg) of 9.4 mL/min/kg. Moreover, the results for the half-life in series [2] (IV 1 mg/kg) and in series [2] (PO 20 mg/kg) were 40.2 min and 151 min, respectively. Besides, the Vd in series [2] (IV 1 mg/kg) came to 0.201 L/kg. Also, in series [2] (PO 20 mg/kg), the Tmax worked out at 140 min. Also, the “increase in plasma AUC compared to E7820” value in series [2] (oral administration, compared to control compound E7820) is listed as “greater than 2 fold”.

On to `Cc1ccc(NS(=O)(=O)c2cccc(C#N)c2)c2[nH]cc(C#N)c12` [Compound E7820, E7820, reference compound], for which the half-life at 1 µM in series [1] (setting [9]) was 50.7 min; in series [1] (setting [4]), 51 min; in series [3] (setting [13]), 28.7 min; in series [3] (setting [8]), 29 min. The efflux ratio at 2 h, 1 µM stood at 30 on MDR1 (setting [5]) and 29.9 on MDR1 (setting [10]). This compound showed a Papp A→B at 2 h, 1 µM on MDR1 (Table 6) of 1.1 ×10⁻⁶ cm/s. The F in series [2] was 202%. Besides, the results for the AUC(0-t) in series [2] (setting [11]) and in series [2] (setting [12]) were 1640 ng·h/mL and 66200 ng·h/mL, respectively. The compound further showed a Cmax in series [2] (po, 20 mg/kg, PO 20 mg/kg) of 11500 ng/mL. Moreover, the AUC(0-inf) in series [2] (IV 1 mg/kg) turned out to be 1650 ng·h/mL. Moreover, in series [2] (IV 1 mg/kg), the C0 stood at 3150 ng/mL. The compound also showed a clearance in series [2] (IV 1 mg/kg) of 10.2 mL/min/kg. For the same compound, the half-life in series [2] (IV 1 mg/kg) is 32.5 min. Moreover, the Vd in series [2] (IV 1 mg/kg) is 0.393 L/kg. The Tmax in series [2] (PO 20 mg/kg) worked out at 160 min.

(Values after patent US20260116874A1, “HETEROAROMATIC INDOLESULFONAMIDES” (SEED Therapeutics, Inc., priority 2023, published 2026).)
